From ChEMBL document CHEMBL1201862, “PubChem BioAssay data set” (2004)
Activity calls are given as the source filed them.

How the values were obtained:
[1] = test system: P388; assay: cells; format: functional; details: Mus musculus
[2] = test system: SN12K1; assay: cells; format: functional; details: Homo sapiens
[3] = test system: P388/ADR; assay: cells; format: functional; details: Mus musculus
[4] = target: T1, Carboxy-terminal domain RNA polymerase II polypeptide A small phosphatase 1 (Homo sapiens, UniProt Q9GZU7); assay: inhibitors of CTDSP1, concentration-response testing, biochemical assay, absorbance-based, actives from ultra-high-throughput screening (AID 540297); format: functional
T1 sequence (Q9GZU7 whole entry): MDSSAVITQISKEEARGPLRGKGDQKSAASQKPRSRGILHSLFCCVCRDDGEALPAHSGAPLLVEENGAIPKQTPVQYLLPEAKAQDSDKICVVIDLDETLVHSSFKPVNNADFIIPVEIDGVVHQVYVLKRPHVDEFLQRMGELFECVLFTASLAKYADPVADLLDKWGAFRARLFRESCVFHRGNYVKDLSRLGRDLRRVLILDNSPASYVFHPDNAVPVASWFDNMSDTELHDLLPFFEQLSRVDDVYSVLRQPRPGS

[5] = target: T2, Polyadenylate-binding protein 1 (Homo sapiens, UniProt P11940); assay: PABP1 MLLE–PAM2 binding inhibitor potency, dose response, biochemical, fluorescence polarization, FITC-PAM2 peptide (AID 602259); format: functional; details: read-out: IC50_Mean
[6] = target: T2, Polyadenylate-binding protein 1; assay: PABP1 MLLE–PAM2 interaction inhibitors, dose response, miRNA deadenylation inhibitor project, biochemical, fluorescence polarization, Cy5-PAM2 peptide, secondary (AID 602260); format: functional; details: read-out: IC50_Mean
[7] = target: T3, Protein skinhead-1 (Caenorhabditis elegans, UniProt P34707); format: functional
T3 sequence (P34707 whole entry): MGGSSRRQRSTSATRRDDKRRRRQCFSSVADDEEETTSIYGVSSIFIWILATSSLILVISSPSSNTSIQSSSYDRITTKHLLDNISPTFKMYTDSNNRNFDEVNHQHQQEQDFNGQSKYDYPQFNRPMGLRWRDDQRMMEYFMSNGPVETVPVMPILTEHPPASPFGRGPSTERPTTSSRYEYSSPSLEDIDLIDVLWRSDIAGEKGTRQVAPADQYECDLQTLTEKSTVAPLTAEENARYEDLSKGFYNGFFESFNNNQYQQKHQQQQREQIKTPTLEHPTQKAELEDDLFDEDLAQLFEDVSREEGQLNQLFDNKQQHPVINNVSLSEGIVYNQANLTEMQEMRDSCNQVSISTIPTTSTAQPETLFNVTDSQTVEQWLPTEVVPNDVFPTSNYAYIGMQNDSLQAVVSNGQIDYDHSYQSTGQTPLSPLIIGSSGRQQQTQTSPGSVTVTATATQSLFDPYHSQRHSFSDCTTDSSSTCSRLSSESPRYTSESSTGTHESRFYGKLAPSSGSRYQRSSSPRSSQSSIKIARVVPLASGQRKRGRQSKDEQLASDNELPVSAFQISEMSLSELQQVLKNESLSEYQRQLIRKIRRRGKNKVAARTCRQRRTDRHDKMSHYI

[8] = NIH-3T3 fibroblast cytotoxicity, dose response, cytotoxicity control, cell-based, fluorescence, Alamar Blue, secondary assay (AID 2327); format: functional;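 further: NIH-3T3 mouse fibroblasts cultured with fluconazole at 8 µg/mL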
[9] = C. albicans growth with fluconazole, confirmation, fluorescence, retest (AID 2467); format: functional, cell-based
[10] = P. falciparum 3D7-ScDHODH growth inhibitors, dose response, SYBR Green, dry powder samples (AID 1159570); format: functional, cell-based;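 further: parasite growth measured after 72 hours of compound exposure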
[11] = P. falciparum ATP4 D1247Y mutant growth inhibitors, dose response, NITD609-resistant line, SYBR Green, dry powder (AID 1159571); format: functional, cell-based;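 further: parasites synchronized at ring stage by sorbitol before testing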
[12] = P. falciparum Dd2 growth inhibitors, dose response, SYBR Green, cherry-picked samples (AID 1159567); format: functional, cell-based
[13] = P. falciparum Dd2 growth inhibitors, dose response, SYBR Green, dry powder samples (AID 1159566); format: functional, cell-based;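 further: potency for growth inhibition with lower SYBR green DNA signal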
[14] = inhibitors of clade B AD8 Env fusion, dose response, cell-based, cherry-pick (AID 652062); format: functional;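 further: luciferase signal from cell-cell fusion driven by HIV-1 clade B AD8 Env; potency is for inhibitors of fusion seen as a drop in luminescence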

T2 sequence (P11940 whole entry): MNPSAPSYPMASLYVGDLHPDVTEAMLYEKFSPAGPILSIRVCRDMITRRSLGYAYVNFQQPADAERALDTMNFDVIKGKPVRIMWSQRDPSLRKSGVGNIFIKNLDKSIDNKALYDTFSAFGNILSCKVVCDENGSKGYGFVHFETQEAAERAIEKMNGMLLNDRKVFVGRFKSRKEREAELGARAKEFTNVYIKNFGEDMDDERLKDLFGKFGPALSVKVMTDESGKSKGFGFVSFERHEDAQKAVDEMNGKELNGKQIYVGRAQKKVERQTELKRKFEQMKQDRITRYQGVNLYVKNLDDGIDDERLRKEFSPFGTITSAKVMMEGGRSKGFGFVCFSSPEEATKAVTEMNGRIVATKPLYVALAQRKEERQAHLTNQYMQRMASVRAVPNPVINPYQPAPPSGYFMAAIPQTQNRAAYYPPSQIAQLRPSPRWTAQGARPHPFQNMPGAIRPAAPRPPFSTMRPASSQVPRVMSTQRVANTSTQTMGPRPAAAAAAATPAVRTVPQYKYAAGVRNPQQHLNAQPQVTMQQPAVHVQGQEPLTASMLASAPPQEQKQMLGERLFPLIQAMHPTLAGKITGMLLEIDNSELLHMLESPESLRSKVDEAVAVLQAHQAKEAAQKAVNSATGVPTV

Which results are given for O=NN(CCCl)C(=O)NCCCl [CARMUSTINE]?
GI50 [1]: 6.62 µM (inactive); GI50 [2]: 58.3 µM (inactive); GI50 [3]: 7.29 µM (inactive)

With CC[N+]1(CC(O)COC2CC(C)CC(C)(C)C2)CCOCC1 (stereo unspecified) as the compound, how does the IC50 [4] read?
Its IC50 is 11.3 µM (active).

What does the source list for COc1ccccc1C(=O)NCCn1ccc2ccccc21?
IC50 [5]: > 66 µM (inactive); IC50 [6]: > 66 µM (inactive)

With Cc1c(Cl)cccc1N=C(S)NCCc1ccc(S(N)(=O)=O)cc1 as the compound, how does the IC50 [5] read?
The IC50 was > 66 µM (inactive).

And the IC50 [6]?
Its IC50 is > 66 µM (inactive).

For O=C(O)C1CCC(=O)N1S(=O)(=O)c1ccccc1 (stereo unspecified), which GI50 [1] is on record?
Its GI50 is > 100 µM (inactive).

What about the GI50 [2] of the same compound?
Its GI50 is > 100 µM (inactive).

What about the GI50 [3] of the same compound?
Its GI50 is > 100 µM (inactive).

For Cc1cc(C(=O)COC(=O)c2cc(Cl)c(O)c(Cl)c2)c(C)n1C, which IC50 [4] is on record?
The IC50 was 11.5 µM (active).

With O=C(CN(Cc1ccco1)C(=O)CNS(=O)(=O)c1ccc(Cl)cc1)NC1CCCCC1 as the compound, how does the IC50 [7] read?
The IC50 was > 100 µM (inactive).

With Cc1ccc(OP2(=O)Oc3ccc4ccccc4c3CN2c2ccc(Cl)cc2)cc1C (stereo unspecified) as the compound, how does the GI50 [1] read?
Its GI50 is > 100 µM (inactive).

And the GI50 [2]?
The GI50 was > 100 µM (inactive).

And the GI50 [3]?
The GI50 was > 100 µM (inactive).

Which IC50 [4] does the source give for N#Cc1ccc(OCC(=O)Nc2cccc(S(=O)(=O)NC3=NCCCCC3)c2)cc1 here?
The IC50 was 11.6 µM (active).

Which results are given for CSCSCC(N)CO.Cc1[nH]c(=O)[nH]c(=O)c1/C=C/C(=O)O?
GI50 [1]: > 625 µM (inactive); GI50 [2]: > 625 µM (inactive); GI50 [3]: > 625 µM (inactive)

For CC(=O)Nc1ccc(N2CC(C)(C)C2=O)cc1, which EC50 [8] is on record?
The EC50 was 38.4 µM (active).

And the EC50 [9]?
The EC50 was > 38 µM (not active).

For Cc1cc(OCC(O)CN2CCN(C)CC2)ccc1C(C)C (stereo unspecified), which IC50 [7] is on record?
Its IC50 is > 100 µM (inactive).

Which results are given for Cc1c(Cl)ccc(S(=O)(=O)Nc2cccnc2)c1Cl?
EC50 [8]: > 150 µM (inactive); EC50 [9]: > 38 µM (not active)

For CCc1ccc(-c2csc3ncn(Cc4ccc(C(=O)O)cc4)c(=O)c23)cc1, which EC50 [8] is on record?
The EC50 was > 150 µM (inconclusive).

What about the EC50 [9] of the same compound?
Its EC50 is > 38 µM (not active).

With CC(C)(C)[S@@+]([O-])N1Cc2cc(C(=O)N[C@@H]3CCN(Cc4ccccc4)C3)nc(-c3cccc(-c4cccnc4)c3)c2[C@H]1CCO as the compound, how does the AC50 [10] read?
The AC50 was 3.42 µM (active).

What about the AC50 [11] of the same compound?
Its AC50 is 2.58 µM (active).

What about the AC50 [12] of the same compound?
Its AC50 is 1.94 µM (active).

And the AC50 [13]?
The AC50 was 2.01 µM (active).

Which results are given for CN1c2ccc(C#Cc3cccnc3)cc2[C@H]2[C@H](CCN2S(=O)(=O)c2ccc(F)cc2)[C@H]1CO?
AC50 [10]: 1.33 µM (active); AC50 [11]: 1.16 µM (active); AC50 [12]: 1.7 µM (active); AC50 [13]: 1.05 µM (active)

For COc1ccc(NC(=O)N2CC3(C2)CN(C(=O)C2CCC2)[C@H](CO)c2c3c3ccc(OC)cc3n2C)cc1, which AC50 [10] is on record?
The AC50 was 0.22 µM (active).

And the AC50 [11]?
Its AC50 is 0.372 µM (active).

What about the AC50 [12] of the same compound?
The AC50 was 2.21 µM (active).

What about the AC50 [13] of the same compound?
Its AC50 is 0.437 µM (active).

With Brc1ccc(OCc2n[nH]c(-c3ccccn3)n2)cc1 as the compound, how does the IC50 [7] read?
The IC50 was > 100 µM (inactive).

For CCCNC(=O)C[C@@H]1C[C@H]2c3cc(NC(=O)Cc4ccncc4)ccc3O[C@H]2[C@H](CO)O1, which AC50 [14] is on record?
Its AC50 is 39.4 µM (active).

Which results are given for CCN1C(=O)[C@H]2[C@H]3CN=C(SCC(=O)c4ccccc4)N3[C@@](C)(C(=O)OC)[C@H]2C1=O?
IC50 [5]: > 66 µM (inactive); IC50 [6]: > 66 µM (inactive)

For Cc1cnc(C(=O)Nc2ccccc2-c2ccc(C)o2)cn1, which IC50 [7] is on record?
The IC50 was > 100 µM (inactive).

With CCN(c1c(C)n(C)n(-c2ccccc2)c1=O)S(C)(=O)=O as the compound, how does the IC50 [5] read?
Its IC50 is > 66 µM (inactive).

What about the IC50 [6] of the same compound?
The IC50 was > 66 µM (inactive).
